According to patent publication US20080119530A1, “Method for treatment and prevention of ultraviolet light induced skin pathologies” (priority 2006, published 2008):

Assays:
[1] = system: proliferating cell nuclear antigen (PCNA); experiment: PCNA expression in skin; type: in vivo, mouse; settings: sham-irradiated skin and UV-exposed skin
Protocol: It has been discovered that Erbb2 modulates the expression of genes important in both proliferation and apoptosis following UV exposure in vivo (Example 9). Accordingly, the influence of Erbb2 on both apoptosis and cell proliferation was assessed in order to determine the mechanisms of Erbb2's effect on hyperplasia in the skin after UV irradiation. Erbb2 suppresses UV-induced apoptosis in vitro, although the effect was slight (32). The percentage of TUNEL-positive basal cells was increased at 24 h after UV in vehicle-treated skin, consistent with previous observations in this animal model (13). […] Erbb2 reportedly suppresses keratinocyte differentiation (11), a process leading to keratinocyte death that is mechanistically and morphologically distinct from apoptosis. […] Mean proliferating cell nuclear antigen (PCNA) expression, a marker of cell proliferation, was less in Erbb2 inhibitor treated sham-irradiated skin and in UV-exposed skin when compared to the vehicle-treated controls.

primary keratinocytes = experiment: Cell cycle distribution (DNA content, flow cytometry) in cultured keratinocytes; type: cell-based, mouse
Excerpt: (§1) Cell culture. […] Keratinocytes were transfected with Erbb2-targeted siRNA (32), Stealth RNAi Negative Control LO GC (Invitrogen, Carlsbad, Calif.), Cy3-conjugated Label IT RNAi Delivery Control (Mirus, Madison, Wis.) or sham transfection with TransIT-siQUEST Transfection Reagent (Mirus, Madison, Wis.). Plasmids with Cdc25a (Hassepass et al. 2003a) and EGFP (enhanced green fluorescent protein) cDNA were cotransfected with Lipofectamine Transfection Reagent (Invitrogen, Carlsbad, Calif.). Transfection efficiency was quantified by determining the proportion of the cells that incorporated the fluorescent Cy3-conjugated siRNA or GFP one day post-transfection. Keratinocytes homozygous for the Erbb2 loxP mutation were infected with Cre recombinase-expressing or empty adenoviral vectors in polybrene (Sigma).
Cell cycle. For in vivo analysis of cell cycle distribution, sections from paraffin embedded blocks were dewaxed with xylene, rehydrated and digested in PBS containing 0.5% pepsin (Sigma, St. Louis, Mo.). The nuclei were isolated by filtration and suspended in Vindelov's solution reagent (3.5 mM tris base, pH 7.6, 10 mM NaCl, […] Ribonuclease A, 75 μg/ml PI, 1.01l/ml IPEGAL) (56). For in vitro analysis, keratinocytes were resuspended, fixed in 70% ethanol, resuspended in Vindelov's solution (3.5 mM Tris base, pH 7.6, 10 mM NaCl, 10 μg/ml Ribonuclease A, 75 μg/ml propidium iodide, 1.01l/ml IPEGAL), and analyzed on a FACSCalibur flow cytometer (Becton Dickinson, Franklin Lakes, N.J.). Cell cycle distributions were determined using ModFit LT 3.1 software (Verity Software House, Topsham, Me.). […]
To further investigate Erbb2's effects on cell cycle progression after UV irradiation, DNA synthesis was examined after UV irradiation of cultured primary keratinocytes lacking Erbb2 activity. […] An even more striking effect was detected after UV irradiation. […] The influence of Erbb2 activation on S-phase progression was determined using both pharmacologic and genetic models to interfere with Erbb2 signaling. […]

keratinocytes = experiment: Apoptosis in keratinocytes (ssDNA Apoptosis ELISA); type: cell-based, mouse
Excerpt: as §1
Proliferation and apoptosis assays. Proliferation, survival and apoptosis were quantified in three replicate experiments. BrdU uptake was measured by a chemiluminescenit BrdU Cell Proliferation ELISA (Roche, Germany). Survival was quantified using 4-methylumbelliferyl heptanoate (MUH, Sigma, St. Louis, Mo.) degradation product fluorescence (ex: 360 nm, em:465 nm) as a marker for cell viability based on the method by Dotsika et al.^27 Cells were incubated in 100 μg/ml MUH in PBS for 30 minutes at 37° C. MUH fluorescence from wells lacking cells was subtracted from all samples. Apoptosis was measured using an ssDNA Apoptosis ELISA kit (Chemicon, Temecula, Calif.).
To investigate the role of Erbb2 in apoptosis following UV exposure, keratinocyte survival was measured in AG825-treated or Erbb2 siRNA-transfected cells and controls. As expected, apoptosis increased in all groups after UV exposure, as detected by ssDNA quantification.

EGFR = experiment: UV-induced phosphorylation of EGFR; type: cell-based, mouse
Excerpt: For some experiments, the epidermis was separated from the skin by the heat shock method before homogenization. Keratinocytes were lysed in the same buffer. Membranes were immunoblotted with antibodies recognizing Erbb2, phospho-Erbb2 (Tyr^1248), EGFR, phospho-EGFR (Tyr^992), phospho-EGFR (Tyr^1173), phosphotyrosine, and Tall (Calbiochem, San Diego, Calif.). Binding of horseradish peroxidase-conjugated secondary antibodies (Cell Signaling, Beverly, Mass.) was visualized using chemiluminescent reagents (Pierce, Rockford, Ill.) and autoradiography. Densitometry was performed using IDScan software (Scanalytics, Fairfax, Va.).
Several methods were developed to regulate Erbb2 expression and activity both in vitro and in vivo.

Abl = Abl (Homo sapiens, UniProt P00519)
Abl, sequence (P00519 whole entry, species assumed): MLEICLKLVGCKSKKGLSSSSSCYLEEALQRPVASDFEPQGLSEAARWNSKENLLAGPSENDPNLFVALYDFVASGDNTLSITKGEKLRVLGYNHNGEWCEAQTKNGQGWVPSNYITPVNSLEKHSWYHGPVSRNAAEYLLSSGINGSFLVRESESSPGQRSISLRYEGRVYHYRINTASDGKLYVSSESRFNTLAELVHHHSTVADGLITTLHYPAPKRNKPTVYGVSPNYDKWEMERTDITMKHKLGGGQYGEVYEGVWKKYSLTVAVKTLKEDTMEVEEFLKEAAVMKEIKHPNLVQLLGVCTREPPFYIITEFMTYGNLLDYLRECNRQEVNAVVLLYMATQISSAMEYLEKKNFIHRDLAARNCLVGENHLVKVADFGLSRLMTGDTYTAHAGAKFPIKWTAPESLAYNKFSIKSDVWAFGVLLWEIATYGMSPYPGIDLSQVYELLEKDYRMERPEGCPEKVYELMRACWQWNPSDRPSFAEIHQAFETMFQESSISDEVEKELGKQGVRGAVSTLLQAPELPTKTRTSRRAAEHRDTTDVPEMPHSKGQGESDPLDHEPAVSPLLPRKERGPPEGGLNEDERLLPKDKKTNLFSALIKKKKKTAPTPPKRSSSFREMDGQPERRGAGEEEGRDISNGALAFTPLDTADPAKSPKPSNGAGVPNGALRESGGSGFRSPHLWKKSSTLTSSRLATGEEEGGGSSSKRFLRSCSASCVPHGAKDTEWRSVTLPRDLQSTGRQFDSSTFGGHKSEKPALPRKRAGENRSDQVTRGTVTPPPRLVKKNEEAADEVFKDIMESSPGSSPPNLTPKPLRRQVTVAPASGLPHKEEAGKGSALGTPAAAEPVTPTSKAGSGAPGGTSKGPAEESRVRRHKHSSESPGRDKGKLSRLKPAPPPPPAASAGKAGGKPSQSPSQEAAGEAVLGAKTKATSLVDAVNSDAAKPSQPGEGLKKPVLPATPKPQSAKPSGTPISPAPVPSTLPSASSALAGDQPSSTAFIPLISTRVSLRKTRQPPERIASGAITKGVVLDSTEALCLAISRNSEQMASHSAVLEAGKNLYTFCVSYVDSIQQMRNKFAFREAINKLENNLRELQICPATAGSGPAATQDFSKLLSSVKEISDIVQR

COc1cc(/C=C(\C#N)C(N)=O)cc(CSc2nc3ccccc3s2)c1O [AG825]
mean PCNA expression vs vehicle-treated controls [1]: less
time at which S-phase arrest began (primary keratinocytes; after UV exposure): 18 h
S-phase arrest (primary keratinocytes; after sham UV): caused S-phase arrest
increase in the percentage of cells in S-phase (primary keratinocytes; inhibition prior to UV exposure): 10%
ssDNA (apoptosis), compared with DMSO-treated keratinocytes (keratinocytes; between 6 and 12 h post-UV): similarly increased
apoptosis compared to DMSO-treated cells (keratinocytes; by 24 h after UV exposure): significantly increased
apoptosis after UV in vitro (keratinocytes; extent varies with the assay): small increase
EGFR phosphorylation at Tyr1173 after UV (EGFR): did not block
UV-induced phosphorylation of EGFR-Tyr992 (EGFR): blocked
fold higher IC50 for Abl than for Erbb2 (Abl): more than 100 fold
